Results reported in PubChem BioAssay AID540323 (Johns Hopkins Ion Channel Center, 2011).
Calls of active or inactive are those of the source.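 Rule for the calls: active = peak hERG channel inhibition above 30% at some tested dose, together with a fitted dose response curve; inactive = no hERG inhibition at any dose, or no curve.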

biological target: Voltage-gated inwardly rectifying potassium channel KCNH2 (Homo sapiens) (UniProt Q12809); test: hERG channel inhibition, SAR follow-up, selectivity assay for KCNK9 inhibitor project, FluxOR Tl flux, hERG cells, CRC 2 (AID 540323); settings: hERG-expressing cells, FluxOR thallium flux fluorescence; at 30 µM (top of the series); test wells contain dofetilide at its IC70
Sequence (Q12809 whole entry, looked up): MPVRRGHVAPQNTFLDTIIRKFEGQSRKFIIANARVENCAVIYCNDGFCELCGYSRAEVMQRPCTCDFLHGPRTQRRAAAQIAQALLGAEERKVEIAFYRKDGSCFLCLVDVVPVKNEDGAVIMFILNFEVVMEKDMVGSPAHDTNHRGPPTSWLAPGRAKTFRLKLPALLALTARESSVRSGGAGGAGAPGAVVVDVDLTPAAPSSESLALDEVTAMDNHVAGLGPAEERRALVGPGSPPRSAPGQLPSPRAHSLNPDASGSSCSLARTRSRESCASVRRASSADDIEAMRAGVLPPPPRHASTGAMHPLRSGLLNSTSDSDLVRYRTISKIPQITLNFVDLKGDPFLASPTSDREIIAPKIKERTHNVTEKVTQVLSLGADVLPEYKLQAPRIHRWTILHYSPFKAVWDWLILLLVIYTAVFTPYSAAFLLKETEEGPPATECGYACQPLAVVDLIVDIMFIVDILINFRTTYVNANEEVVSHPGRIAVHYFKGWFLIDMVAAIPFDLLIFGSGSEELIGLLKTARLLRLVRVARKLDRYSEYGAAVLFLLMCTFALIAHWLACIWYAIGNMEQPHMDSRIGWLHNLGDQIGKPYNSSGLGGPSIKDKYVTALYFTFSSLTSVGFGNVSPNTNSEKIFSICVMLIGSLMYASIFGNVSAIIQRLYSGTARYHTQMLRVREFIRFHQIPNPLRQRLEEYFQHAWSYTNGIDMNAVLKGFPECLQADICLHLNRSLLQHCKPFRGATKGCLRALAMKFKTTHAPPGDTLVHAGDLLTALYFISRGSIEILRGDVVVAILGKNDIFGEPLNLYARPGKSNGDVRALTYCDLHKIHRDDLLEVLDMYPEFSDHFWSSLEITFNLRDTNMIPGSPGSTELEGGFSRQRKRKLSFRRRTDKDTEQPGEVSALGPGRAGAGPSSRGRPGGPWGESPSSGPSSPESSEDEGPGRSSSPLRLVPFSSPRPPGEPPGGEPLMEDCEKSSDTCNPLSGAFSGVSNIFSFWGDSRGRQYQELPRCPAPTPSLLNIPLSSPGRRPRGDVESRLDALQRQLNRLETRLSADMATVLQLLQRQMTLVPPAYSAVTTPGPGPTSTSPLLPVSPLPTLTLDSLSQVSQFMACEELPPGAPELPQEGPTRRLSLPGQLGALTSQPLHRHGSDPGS

Question: For COc1ccc(C(=O)Nc2cccc(NC(=O)c3ccccc3)c2)cc1, which “fluorescence ratio, lower = inhibition” value is on record?
Answer: Its value is “inactive”.

Question: Which “fluorescence ratio, lower = inhibition” value does the source give for O=C(Nc1cccc(NC(=O)c2cccc(F)c2)c1)c1ccccc1 here?
Answer: Its value is “inactive”.

Question: For Cc1ccccc1C(=O)Nc1cccc(NC(=O)c2ccccc2)c1, which “fluorescence ratio, lower = inhibition” value is on record?
Answer: Its value is “inactive”.

Question: For Cc1cccc(C(=O)Nc2cccc(NC(=O)c3cccc(C(F)(F)F)c3)c2)c1, which “fluorescence ratio, lower = inhibition” value is on record?
Answer: Its value is “inactive”.

Question: Which “fluorescence ratio, lower = inhibition” value does the source give for CC(c1ccco1)n1c(-c2ccoc2)n[nH]c1=S (centres undefined) here?
Answer: The value was “inactive”.

Question: COc1ccccc1NC(=O)c1cccc(NC(=O)CC2CCCC2)c1 was tested. Which “fluorescence ratio, lower = inhibition” value did it give?
Answer: Its value is “inactive”.

Question: Which “fluorescence ratio, lower = inhibition” value does the source give for COc1ccccc1C(=O)Nc1cccc(NC(=O)c2cccc(C)c2)c1 here?
Answer: Its value is “inactive”.

Question: With CCOc1ccccc1C(=O)Nc1cccc(NC(=O)c2ccccc2C(F)(F)F)c1 as the molecule, how does the “fluorescence ratio, lower = inhibition” value read?
Answer: Its value is “inactive”.

Question: How did the “fluorescence ratio, lower = inhibition” value turn out when CCOc1ccccc1NC(=O)c1cccc(C(=O)NC2CCCC2)c1 was run?
Answer: The value was “inactive”.

Question: For CCOc1ccccc1NC(=O)c1cccc(NC(=O)c2cccc(Cl)c2)c1, which “fluorescence ratio, lower = inhibition” value is on record?
Answer: The value was “inactive”.

Question: How did the “fluorescence ratio, lower = inhibition” value turn out when Cc1cccc(C(=O)Nc2ccccc2NC(=O)c2ccccc2)c1 was run?
Answer: Its value is “inactive”.

Question: Which “fluorescence ratio, lower = inhibition” value does the source give for S=c1[nH]nc(-c2ccco2)n1CC1CCCCC1 here?
Answer: Its value is “inactive”.

Question: O=C(Nc1cccc(NC(=O)c2ccc(F)cc2)c1)c1ccccc1 was tested. Which “fluorescence ratio, lower = inhibition” value did it give?
Answer: The value was “inactive”.

Question: For CCOc1ccccc1NC(=O)c1cccc(NC(=O)C2CCCC2)c1, which “fluorescence ratio, lower = inhibition” value is on record?
Answer: The value was “inactive”.

Question: Cc1cccc(C(=O)Nc2cccc(NC(=O)c3ccccc3OCC(C)C)c2)c1 was tested. Which “fluorescence ratio, lower = inhibition” value did it give?
Answer: The value was “inactive”.

Question: For CCOc1ccccc1C(=O)Nc1cccc(NC(=O)C2CCCC2)c1, which “fluorescence ratio, lower = inhibition” value is on record?
Answer: Its value is “inactive”.

Question: How did the “fluorescence ratio, lower = inhibition” value turn out when CC(C)(C)c1ccc(C(=O)Nc2cccc(NC(=O)c3ccccc3)c2)cc1 was run?
Answer: Its value is “inactive”.

Question: How did the “fluorescence ratio, lower = inhibition” value turn out when COc1ccccc1C(=O)Nc1cccc(NC(=O)c2ccccc2)c1 was run?
Answer: The value was “inactive”.

Question: O=C(Nc1cccc(NC(=O)c2ccco2)c1)c1ccccc1 was tested. Which “fluorescence ratio, lower = inhibition” value did it give?
Answer: The value was “inactive”.

Question: How did the “fluorescence ratio, lower = inhibition” value turn out when CCOc1ccc(NC(=O)c2cccc(NC(=O)C3CCCC3)c2)cc1 was run?
Answer: The value was “inactive”.

Question: With CCOc1ccccc1NC(=O)c1cccc(NC(=O)c2ccccc2Cl)c1 as the molecule, how does the “fluorescence ratio, lower = inhibition” value read?
Answer: The value was “inactive”.

Question: Cc1cccc(S(=O)(=O)Nc2cccc(NC(=O)c3ccccc3)c2)c1 was tested. Which “fluorescence ratio, lower = inhibition” value did it give?
Answer: Its value is “inactive”.

Question: CCOc1ccccc1NC(=O)c1cccc(NC(=O)c2ccccc2OC)c1 was tested. Which “fluorescence ratio, lower = inhibition” value did it give?
Answer: Its value is “inactive”.

Question: For CCOc1ccccc1NC(=O)c1cccc(NC(=O)C2CCCO2)c1 (centres undefined), which “fluorescence ratio, lower = inhibition” value is on record?
Answer: Its value is “inactive”.

Question: Which “fluorescence ratio, lower = inhibition” value does the source give for COc1ccccc1NC(=O)c1cccc(NC(=O)c2ccccc2)c1 here?
Answer: Its value is “inactive”.

Question: CCOc1ccccc1NC(=O)c1cccc(NC(=O)c2ccccc2)c1 was tested. Which “fluorescence ratio, lower = inhibition” value did it give?
Answer: Its value is “inactive”.

Question: With Cc1cccc(C(=O)Nc2cccc(NC(=O)C3CCCCC3)c2)c1 as the molecule, how does the “fluorescence ratio, lower = inhibition” value read?
Answer: Its value is “inactive”.

Question: How did the “fluorescence ratio, lower = inhibition” value turn out when Cc1cccc(C(=O)Nc2cccc(NC(=O)c3ccc(N(C)C)cc3)c2)c1 was run?
Answer: Its value is “inactive”.

Question: CCOc1ccccc1C(=O)Nc1cccc(NC(=O)c2ccccc2OC)c1 was tested. Which “fluorescence ratio, lower = inhibition” value did it give?
Answer: The value was “inactive”.

Question: How did the “fluorescence ratio, lower = inhibition” value turn out when CCOc1ccccc1C(=O)Nc1cccc(NC(=O)c2cccc(C)c2)c1 was run?
Answer: Its value is “inactive”.

Question: Which “fluorescence ratio, lower = inhibition” value does the source give for O=C(Nc1cccc(NC(=O)c2ccccn2)c1)c1ccccc1 here?
Answer: The value was “inactive”.

Question: For CCOc1ccccc1NC(=O)c1cccc(NC(=O)c2cccc(OC)c2)c1, which “fluorescence ratio, lower = inhibition” value is on record?
Answer: The value was “inactive”.

Question: With Cc1cccc(C(=O)Nc2cccc(NC(=O)c3ccco3)c2)c1 as the molecule, how does the “fluorescence ratio, lower = inhibition” value read?
Answer: Its value is “inactive”.

Question: How did the “fluorescence ratio, lower = inhibition” value turn out when COc1cccc(-c2n[nH]c(=S)n2C(C)C2CC3CCC2C3)c1 (centres undefined) was run?
Answer: Its value is “inactive”.

Question: For Cc1cccc(C(=O)Nc2cccc(NC(=O)c3ccc(C(F)(F)F)cc3)c2)c1, which “fluorescence ratio, lower = inhibition” value is on record?
Answer: Its value is “inactive”.

Question: How did the “fluorescence ratio, lower = inhibition” value turn out when Cc1cccc(C(=O)Nc2cccc(NC(=O)c3ccccc3OC(F)(F)F)c2)c1 was run?
Answer: The value was “inactive”.

Question: O=C(Nc1cccc(NC(=O)c2ccc(C(F)(F)F)cc2)c1)c1ccccc1 was tested. Which “fluorescence ratio, lower = inhibition” value did it give?
Answer: The value was “inactive”.

Question: How did the “fluorescence ratio, lower = inhibition” value turn out when Cc1cccc(C(=O)Nc2cccc(NC(=O)c3ccccc3C(C)C)c2)c1 was run?
Answer: Its value is “inactive”.

Question: How did the “fluorescence ratio, lower = inhibition” value turn out when Cc1cccc(C(=O)Nc2cccc(NC(=O)c3cccs3)c2)c1 was run?
Answer: The value was “inactive”.

Question: With Cc1cccc(C(=O)Nc2cccc(NC(=O)c3ccccc3C(F)(F)F)c2)c1 as the molecule, how does the “fluorescence ratio, lower = inhibition” value read?
Answer: Its value is “inactive”.

Question: For CC(C1CC2CCC1C2)n1c(-c2ccsc2)n[nH]c1=S (centres undefined), which “fluorescence ratio, lower = inhibition” value is on record?
Answer: Its value is “inactive”.

Question: O=C(Nc1cccc(NC(=O)c2cccc(C(F)(F)F)c2)c1)c1ccccc1 was tested. Which “fluorescence ratio, lower = inhibition” value did it give?
Answer: Its value is “inactive”.

Question: How did the “fluorescence ratio, lower = inhibition” value turn out when COc1ccccc1C(=O)Nc1cccc(NC(=O)c2ccccc2C(C)C)c1 was run?
Answer: Its value is “inactive”.

Question: With CCOc1ccccc1NC(=O)c1cccc(NC(=O)C2CCOC2)c1 (centres undefined) as the molecule, how does the “fluorescence ratio, lower = inhibition” value read?
Answer: The value was “inactive”.

Question: For CC(C1CC2CCC1C2)n1c(C2CCOC2)n[nH]c1=S (centres undefined), which “fluorescence ratio, lower = inhibition” value is on record?
Answer: Its value is “inactive”.

Question: With CC(C1CC2CCC1C2)n1c(-c2ccc(Cl)cc2)n[nH]c1=S (centres undefined) as the molecule, how does the “fluorescence ratio, lower = inhibition” value read?
Answer: The value was “inactive”.

Question: CC(C1CC2CCC1C2)n1c(-c2ccccc2)n[nH]c1=S (centres undefined) was tested. Which “fluorescence ratio, lower = inhibition” value did it give?
Answer: Its value is “inactive”.

Question: With O=C(Nc1cccc(NC(=O)C2CCCCC2)c1)c1ccccc1 as the molecule, how does the “fluorescence ratio, lower = inhibition” value read?
Answer: The value was “inactive”.

Question: For O=C(Nc1cccc(NC(=O)c2ccoc2)c1)c1ccccc1, which “fluorescence ratio, lower = inhibition” value is on record?
Answer: The value was “inactive”.

Question: How did the “fluorescence ratio, lower = inhibition” value turn out when O=C(Nc1ccccc1Cl)c1cccc(NC(=O)C2CCCC2)c1 was run?
Answer: Its value is “inactive”.

Question: For O=C(Nc1cccc(NC(=O)c2cccnc2)c1)c1ccccc1, which “fluorescence ratio, lower = inhibition” value is on record?
Answer: Its value is “inactive”.

Question: With CCOc1ccccc1NC(=O)c1cccc(NC(=O)C(C)(C)C)c1 as the molecule, how does the “fluorescence ratio, lower = inhibition” value read?
Answer: The value was “inactive”.

Question: With COc1ccccc1NC(=O)c1cccc(NC(=O)C2CCCCC2)c1 as the molecule, how does the “fluorescence ratio, lower = inhibition” value read?
Answer: The value was “inactive”.

Question: How did the “fluorescence ratio, lower = inhibition” value turn out when O=C(Nc1cccc(NC(=O)c2cccc(Cl)c2)c1)c1ccccc1 was run?
Answer: Its value is “inactive”.

Question: CCOc1ccccc1NC(=O)c1cccc(NC(=O)c2ccc(Cl)cc2)c1 was tested. Which “fluorescence ratio, lower = inhibition” value did it give?
Answer: The value was “inactive”.

Question: How did the “fluorescence ratio, lower = inhibition” value turn out when COc1ccccc1C(=O)Nc1cccc(NC(=O)c2ccccc2OC(F)(F)F)c1 was run?
Answer: Its value is “inactive”.

Question: How did the “fluorescence ratio, lower = inhibition” value turn out when Cc1cccc(C(=O)Nc2cccc(NC(=O)c3ccccc3Cl)c2)c1 was run?
Answer: The value was “inactive”.

Question: For COc1cccc(C(=O)Nc2cccc(NC(=O)c3ccccc3)c2)c1, which “fluorescence ratio, lower = inhibition” value is on record?
Answer: Its value is “inactive”.

Question: With Cc1cccc(-c2n[nH]c(=S)n2C(C)C2CC3CCC2C3)c1 (centres undefined) as the molecule, how does the “fluorescence ratio, lower = inhibition” value read?
Answer: Its value is “inactive”.

Question: CC(C)n1c(-c2ccco2)n[nH]c1=S was tested. Which “fluorescence ratio, lower = inhibition” value did it give?
Answer: Its value is “inactive”.

Question: Which “fluorescence ratio, lower = inhibition” value does the source give for Cc1cccc(C(=O)Nc2cccc(NC(=O)c3ccc(Cl)cc3)c2)c1 here?
Answer: Its value is “inactive”.

Question: How did the “fluorescence ratio, lower = inhibition” value turn out when CCOc1ccccc1NC(=O)c1cccc(NC(=O)C2CC2)c1 was run?
Answer: Its value is “inactive”.

Question: For O=C(Nc1cccc(NC(=O)c2ccc(Cl)cc2)c1)c1ccccc1, which “fluorescence ratio, lower = inhibition” value is on record?
Answer: The value was “inactive”.

Question: O=C(Nc1cccc(NC(=O)c2ccncc2)c1)c1ccccc1 was tested. Which “fluorescence ratio, lower = inhibition” value did it give?
Answer: The value was “inactive”.
